Laboratory results as given in patent US10869933B2, “Oligomer-phenothiazine conjugates” (Nektar Therapeutics, priority 2009, dated 2020).
Read-outs that look alike come from different tables or passages of the source.

Legend:
Brain:plasma ratio = assay type: in vivo; details: rat, brain and plasma, iv; rats, 5 mg/kg intravenously, one hour after injection; brain (ng/g) / plasma (ng/mL)
Method: An hour following injection, the animals were sacrificed and plasma and brain were collected and frozen immediately. Following tissue and plasma extractions, concentrations of the compounds in brain and plasma were measured using LC-MS/MS. The brain:plasma ratio was calculated as the ratio of measured concentrations in the brain(ng/g) and plasma (ng/mL).

[1] = target: T1, recombinant human M5 muscarinic acetylcholine receptor (Homo sapiens, UniProt P08912); assay: Muscarinic M5 receptor radioligand binding; details: 3H-N-Methylscopolamine 0.8 nM, CHO cell membranes
T1 construct: expressed in transfected cells; host or cells: CHO cells (membranes)
T1 sequence (P08912 1-532): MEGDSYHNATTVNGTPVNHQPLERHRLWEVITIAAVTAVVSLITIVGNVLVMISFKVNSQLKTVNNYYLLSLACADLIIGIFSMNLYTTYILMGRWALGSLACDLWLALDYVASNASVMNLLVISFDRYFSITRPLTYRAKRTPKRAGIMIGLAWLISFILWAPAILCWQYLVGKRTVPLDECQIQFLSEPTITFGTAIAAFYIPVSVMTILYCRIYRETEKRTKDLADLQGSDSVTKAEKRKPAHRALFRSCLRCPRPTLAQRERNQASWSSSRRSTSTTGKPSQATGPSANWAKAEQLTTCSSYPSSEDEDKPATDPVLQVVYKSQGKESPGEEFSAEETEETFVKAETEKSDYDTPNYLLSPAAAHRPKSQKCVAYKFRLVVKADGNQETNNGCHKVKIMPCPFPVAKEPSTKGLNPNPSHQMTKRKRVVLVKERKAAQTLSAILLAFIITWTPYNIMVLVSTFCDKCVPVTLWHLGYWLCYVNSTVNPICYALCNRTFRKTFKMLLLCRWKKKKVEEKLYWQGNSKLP

[2] = target: T2, recombinant human H1 histamine receptor (Homo sapiens, UniProt P35367); assay: Histamine H1 receptor radioligand binding; details: for Ki: [3H]-Pyrilamine 1.2 nM, human rCHO cell membranes; for Fold change in binding affinity at H1: relative to Promethazine
T2 construct: expressed in transfected cells; host or cells: CHO cells (membranes)
Method: (§1) The radioligands used are specific for each receptor subtype and the assay conditions are described in Table 2. […] Ki is obtained using the Cheng Prusoff correction using experimental Kd vales that are determined under these assay conditions.

[3] = Log P determination (Sirius GLpKa); assay type: physicochemical; details: Partition Log P, average of three measurements
Method: (§2) A blank standardization has to be completed first and passed in order to conduct the compound experiments. The solutions used by the instrument for the blank titration include water, a pH solution, and a surfactant (TRITON X-100). The TRITON X-100 was purchased commercially from Sirus. The 0.5% solution of TRITON X-100 was used in the experiment. In a 1 L volumetric flask 5 mls of TRITON X-100 is added and MILLI Q water to volume. The vessels used by the instrument were filled to ⅓ of their volume with each solution. Therefore the assay tray contains one vessel for water, pH solution, and surfactant for the blank run. The temperature of the water bath for the instrument is 25° C. The blank is calculated as an average of three “good” experiments. The “good” was denoted by a green check mark next to the assay number in the computer software. Once the blank was run successfully the instrument was ready to conduct the experiments.
An additional method has to be set up for the Log P determinations for each compound. […] The vessels are placed in the assay tray of the instrument. The experimental parameters are entered into the computer. These included sample weight, molecular weight, assay type (Partition Log P), number of assays (three), and pKa value of the parent drug from the previous experiment. The run was started. There are three measurements for each run that are averaged to obtain the final results from the data points collected in the calculation software. All runs were denoted as “good” by the green check mark next to the assay number.

[4] = target: T3, recombinant human H2 histamine receptor (Homo sapiens, UniProt P25021); assay: Histamine H2 receptor radioligand binding; details: [125I]-Aminopotentidine 0.1 nM, human rCHO-K1 cell membranes; up to 30 μM
T3 construct: expressed in transfected cells; host or cells: CHO cells (membranes)
Method: as §1

[5] = target: T4, recombinant human H3 histamine receptor (Homo sapiens, UniProt Q9Y5N1); assay: Histamine H3 receptor radioligand binding; details: [3H]R(−)-α-Methylhistamine 3 nM, human rCHO-K1 cell membranes; up to 30 μM
T4 construct: expressed in transfected cells; host or cells: CHO cells (membranes)
Method: as §1

[6] = target: T5, recombinant human H4 histamine receptor (Homo sapiens, UniProt Q9H3N8); assay: Histamine H4 receptor radioligand binding; details: [3H]Histamine 8.2 nM, human rCHO-K1 cell membranes; up to 30 μM
T5 construct: expressed in transfected cells; host or cells: CHO cells (membranes)
Method: as §1

[7] = target: T6, recombinant human M2 muscarinic acetylcholine receptor (Homo sapiens, UniProt P08172); assay: Muscarinic M2 receptor radioligand binding; details: 3H-N-Methylscopolamine 0.8 nM, CHO cell membranes
T6 construct: expressed in transfected cells; host or cells: CHO cells (membranes)
T6 sequence (P08172 1-466): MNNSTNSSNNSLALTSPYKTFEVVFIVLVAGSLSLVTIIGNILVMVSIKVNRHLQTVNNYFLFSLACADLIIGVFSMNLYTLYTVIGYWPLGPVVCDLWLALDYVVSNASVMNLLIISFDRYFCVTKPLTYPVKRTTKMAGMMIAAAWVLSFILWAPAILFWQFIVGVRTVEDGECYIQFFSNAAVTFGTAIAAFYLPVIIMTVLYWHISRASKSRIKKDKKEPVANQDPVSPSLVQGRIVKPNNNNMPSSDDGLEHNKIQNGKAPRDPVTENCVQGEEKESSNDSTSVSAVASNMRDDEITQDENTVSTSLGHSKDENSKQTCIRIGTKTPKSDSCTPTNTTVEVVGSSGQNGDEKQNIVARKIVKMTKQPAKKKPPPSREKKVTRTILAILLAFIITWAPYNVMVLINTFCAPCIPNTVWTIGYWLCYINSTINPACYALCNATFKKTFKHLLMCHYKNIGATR

[8] = pKa determination (Sirius GLpKa); assay type: physicochemical
Method: as §2
The pKa had to be determined first in order to calculate the Log P. The ΔPI is used to determine the pKa needed for the Log P experiment followed by the conjugates. Promethazine was first weighed into a vessel. […] The same procedure was followed for each PEG-Promethazine conjugate n=3-9. The vessels were placed in the assay tray of the instrument. A method had to be set up for the pKa run. The experimental parameters are entered into the computer software. These included sample weight, molecular weight, assay type (aqueous pKa), number of assays (three), and titration range (generally 3.5-12). The run was started. There are three measurements for each run that are averaged to obtain the final results from the data points collected in the calculation software. All runs were denoted as “good” by the green check mark next to the assay number.

[9] = target: T7, recombinant human M4 muscarinic acetylcholine receptor (Homo sapiens, UniProt P08173); assay: Muscarinic M4 receptor radioligand binding; details: 3H-N-Methylscopolamine 0.8 nM, CHO cell membranes
T7 construct: expressed in transfected cells; host or cells: CHO cells (membranes)
T7 sequence (P08173 1-479): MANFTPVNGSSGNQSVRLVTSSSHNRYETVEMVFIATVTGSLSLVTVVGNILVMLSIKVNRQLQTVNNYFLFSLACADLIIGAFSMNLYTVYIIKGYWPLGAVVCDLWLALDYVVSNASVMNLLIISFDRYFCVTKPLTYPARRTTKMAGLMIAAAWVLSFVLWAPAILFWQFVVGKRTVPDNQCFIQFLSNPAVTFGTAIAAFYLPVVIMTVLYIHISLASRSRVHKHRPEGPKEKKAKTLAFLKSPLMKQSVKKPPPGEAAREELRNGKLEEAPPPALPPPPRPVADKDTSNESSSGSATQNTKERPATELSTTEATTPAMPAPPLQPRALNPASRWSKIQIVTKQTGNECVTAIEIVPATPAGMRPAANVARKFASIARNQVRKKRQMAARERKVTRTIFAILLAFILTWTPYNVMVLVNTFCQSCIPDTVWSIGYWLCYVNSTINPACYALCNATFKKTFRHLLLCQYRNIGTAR

[10] = system: CD-1 male mice (visceral pain); assay: Analgesic assay: acetic acid writhing; assay type: in vivo; details: Dose 10 mg/kg, single pretreatment 30 min before IP 0.5% acetic acid; contractions counted 0-20 min
Method: An analgesic assay was used to determine whether a given compound can reduce and/or prevent visceral pain in mice.
Mice were treated according to standard protocols.
Contractions were counted between 0 and 20 minutes after the injection. The animals were used once.

[11] = aqueous solution, read-out: pKa

T2 sequence (P35367 whole entry): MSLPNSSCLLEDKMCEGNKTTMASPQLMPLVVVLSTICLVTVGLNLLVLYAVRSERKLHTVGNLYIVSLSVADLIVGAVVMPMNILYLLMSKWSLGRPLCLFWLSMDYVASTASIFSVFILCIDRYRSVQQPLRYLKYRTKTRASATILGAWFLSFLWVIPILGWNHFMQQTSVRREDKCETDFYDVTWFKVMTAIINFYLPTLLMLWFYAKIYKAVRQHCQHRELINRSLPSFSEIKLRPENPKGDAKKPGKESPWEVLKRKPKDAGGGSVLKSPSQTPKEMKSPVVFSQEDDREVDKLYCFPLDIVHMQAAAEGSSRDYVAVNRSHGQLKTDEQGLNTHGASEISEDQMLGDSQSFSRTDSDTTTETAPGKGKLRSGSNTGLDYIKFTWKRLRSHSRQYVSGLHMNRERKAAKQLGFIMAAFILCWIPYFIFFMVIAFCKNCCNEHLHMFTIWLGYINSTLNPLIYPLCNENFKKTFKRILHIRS
T3 sequence (P25021 whole entry): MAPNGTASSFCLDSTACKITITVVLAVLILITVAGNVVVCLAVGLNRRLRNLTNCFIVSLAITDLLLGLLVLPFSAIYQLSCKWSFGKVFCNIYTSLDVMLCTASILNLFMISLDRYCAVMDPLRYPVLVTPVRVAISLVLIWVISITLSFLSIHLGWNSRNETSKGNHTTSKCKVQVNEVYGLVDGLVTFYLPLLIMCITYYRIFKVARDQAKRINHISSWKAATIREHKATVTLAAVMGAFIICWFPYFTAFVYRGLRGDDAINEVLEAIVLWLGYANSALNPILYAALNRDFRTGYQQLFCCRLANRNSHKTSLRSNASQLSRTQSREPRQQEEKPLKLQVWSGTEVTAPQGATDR
T4 sequence (Q9Y5N1 whole entry): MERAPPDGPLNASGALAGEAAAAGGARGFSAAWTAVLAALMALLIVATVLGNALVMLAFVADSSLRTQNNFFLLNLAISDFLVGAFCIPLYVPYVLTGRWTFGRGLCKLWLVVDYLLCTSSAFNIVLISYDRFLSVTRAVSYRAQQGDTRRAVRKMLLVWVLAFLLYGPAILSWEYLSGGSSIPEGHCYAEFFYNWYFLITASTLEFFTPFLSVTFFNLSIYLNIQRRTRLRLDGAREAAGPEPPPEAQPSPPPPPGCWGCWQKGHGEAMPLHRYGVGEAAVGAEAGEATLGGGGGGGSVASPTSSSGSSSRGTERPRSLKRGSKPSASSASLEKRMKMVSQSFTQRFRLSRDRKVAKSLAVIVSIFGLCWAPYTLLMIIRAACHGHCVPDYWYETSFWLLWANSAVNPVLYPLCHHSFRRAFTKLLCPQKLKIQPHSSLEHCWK

Compound	Kp at 1 h (Brain:plasma ratio)	Ki [1]	Ki [2]	Fold change in binding affinity at H1 [2]	logP ([3]; read-out: LogP)	Ki [4]	Ki [5]	Ki [6]	Ki [7]	pKa [8, 11]	logP [3]	pKa ([8]; aqueous pKa, 25° C., average of three measurements)	Ki [9]	Acetic Acid Writhing Mean (% Morphine) [10]
COCCOCCOCCOCc1ccc2c(c1)Sc1ccccc1N2CC(C)N(C)C (stereo not shown) [mPEG3-O-Promethazine, mPEG3-O-promethazine]			7.62 nM	27.41		> 30000 nM	> 30000 nM	> 30000 nM						
CC(CN1c2ccccc2Sc2ccccc21)N(C)C (stereo not shown) [Promethazine, reference compound]		9.34 nM			3.43	> 30000 nM	> 30000 nM	> 30000 nM	26.4 nM	8.99			7.74 nM	
COCCOCCOCCOCCOCCOCCOCCOCCOCCOCc1ccc2c(c1)Sc1ccccc1N2CC(C)N(C)C (stereo not shown) [mPEG9-O-Promethazine, mPEG9-O-promethazine]			45.1 nM	162.23		> 30000 nM	> 30000 nM	> 30000 nM						
mPEG8-N-Promethazine											2.648	8.238		
COCCOCCOCCOCCN(C)C(C)CN1c2ccccc2Sc2ccccc21 (stereo not shown) [mPEG4-N-Promethazine, mPEG4-N-promethazine]	1.86		1.95 nM	7.01	3.51	> 30000 nM	> 30000 nM	> 30000 nM		8.45				
COCCOCCOCCOCCOCCOCCOCCOCc1ccc2c(c1)Sc1ccccc1N2CC(C)N(C)C (stereo not shown) [mPEG7-O-Promethazine, mPEG7-O-promethazine]			33.2 nM	119.42		> 30000 nM	> 30000 nM	> 30000 nM						
COCCOCCOCCN(C)C(C)CN1c2ccccc2Sc2ccccc21 (stereo not shown) [mPEG3-N-Promethazine, mPEG3-N-promethazine]			2.28 nM	8.20	3.65	> 30000 nM	> 30000 nM	> 30000 nM		8.4				
mPEG9-N-promethazine						> 30000 nM	> 30000 nM		308 nM					−59.69 % Morphine

The remaining compounds from weak to strong by Ki [2], led by results:

Kp at 1 h (Brain:plasma ratio)	Ki [1]	Ki [2]	Fold change in binding affinity at H1 [2]	logP ([3]; read-out: LogP)	Ki [4]	Ki [5]	Ki [6]	Ki [7]	pKa [8, 11]	logP [3]	pKa ([8]; aqueous pKa, 25° C., average of three measurements)	Compound	Ki [9]	Acetic Acid Writhing Mean (% Morphine) [10]
0.112	905 nM	16.9 nM	60.79	3	> 30000 nM	> 30000 nM	> 30000 nM	90 nM	8.49			COCCOCCOCCOCCOCCOCCOCCN(C)C(C)CN1c2ccccc2Sc2ccccc21 (stereo not shown) [mPEG7-N-Promethazine, mPEG7-N-promethazine]	435 nM	
0.098	1740 nM	13.2 nM	47.48	3.25	> 30000 nM	> 30000 nM	> 30000 nM	337 nM	8.53			COCCOCCOCCOCCOCCOCCN(C)C(C)CN1c2ccccc2Sc2ccccc21 (stereo not shown) [mPEG6-N-Promethazine, mPEG6-N-promethazine]		
0.243		8.53 nM	30.68	3.6	> 30000 nM	> 30000 nM	> 30000 nM	817 nM	8.67			COCCOCCOCCOCCOCCN(C)C(C)CN1c2ccccc2Sc2ccccc21 (stereo not shown) [mPEG5-N-Promethazine, mPEG5-N-promethazine]		
		7.16 nM	25.76		> 30000 nM	> 30000 nM	> 30000 nM					COCCOCCOCCOCCOCCOCc1ccc2c(c1)Sc1ccccc1N2CC(C)N(C)C (stereo not shown) [mPEG5-O-Promethazine, mPEG5-O-promethazine]		
